Laboratory results reported in US11168095B2, “ASK1 inhibiting agents” (BIOGEN MA INC., priority 2017, dated 2021).
Read-outs that look alike come from different tables or passages of the source.

Experiments:
ASK1/MAP3K5 = ASK1/MAP3K5 (Homo sapiens (Human), UniProt Q99683); assay: ASK1/MAP3K5 assay by Reaction Biology Corp.; format: biochemical
Protocol: ASK1/MAP3K5 was used as the protein kinase and 20 μM of myelin basic protein (MBP) and 10 μM ATP were used as the substrate.

[1] = target: ASK1 T838 auto phosphorylation in HEK-293T cells (Homo sapiens (Human), UniProt Q99683); assay: ASK1 (AUTO PHOS T838) assay, MSD format; format: cell-based
[2] = 20 μM myelin basic protein (MBP), 10 μM ATP
[3] = HEK 293T cells transfected with ASK1-V5 full length plasmid, compounds 1 hr at 37° C., read-out: IC50

ASK1/MAP3K5, sequence (Q99683 whole entry): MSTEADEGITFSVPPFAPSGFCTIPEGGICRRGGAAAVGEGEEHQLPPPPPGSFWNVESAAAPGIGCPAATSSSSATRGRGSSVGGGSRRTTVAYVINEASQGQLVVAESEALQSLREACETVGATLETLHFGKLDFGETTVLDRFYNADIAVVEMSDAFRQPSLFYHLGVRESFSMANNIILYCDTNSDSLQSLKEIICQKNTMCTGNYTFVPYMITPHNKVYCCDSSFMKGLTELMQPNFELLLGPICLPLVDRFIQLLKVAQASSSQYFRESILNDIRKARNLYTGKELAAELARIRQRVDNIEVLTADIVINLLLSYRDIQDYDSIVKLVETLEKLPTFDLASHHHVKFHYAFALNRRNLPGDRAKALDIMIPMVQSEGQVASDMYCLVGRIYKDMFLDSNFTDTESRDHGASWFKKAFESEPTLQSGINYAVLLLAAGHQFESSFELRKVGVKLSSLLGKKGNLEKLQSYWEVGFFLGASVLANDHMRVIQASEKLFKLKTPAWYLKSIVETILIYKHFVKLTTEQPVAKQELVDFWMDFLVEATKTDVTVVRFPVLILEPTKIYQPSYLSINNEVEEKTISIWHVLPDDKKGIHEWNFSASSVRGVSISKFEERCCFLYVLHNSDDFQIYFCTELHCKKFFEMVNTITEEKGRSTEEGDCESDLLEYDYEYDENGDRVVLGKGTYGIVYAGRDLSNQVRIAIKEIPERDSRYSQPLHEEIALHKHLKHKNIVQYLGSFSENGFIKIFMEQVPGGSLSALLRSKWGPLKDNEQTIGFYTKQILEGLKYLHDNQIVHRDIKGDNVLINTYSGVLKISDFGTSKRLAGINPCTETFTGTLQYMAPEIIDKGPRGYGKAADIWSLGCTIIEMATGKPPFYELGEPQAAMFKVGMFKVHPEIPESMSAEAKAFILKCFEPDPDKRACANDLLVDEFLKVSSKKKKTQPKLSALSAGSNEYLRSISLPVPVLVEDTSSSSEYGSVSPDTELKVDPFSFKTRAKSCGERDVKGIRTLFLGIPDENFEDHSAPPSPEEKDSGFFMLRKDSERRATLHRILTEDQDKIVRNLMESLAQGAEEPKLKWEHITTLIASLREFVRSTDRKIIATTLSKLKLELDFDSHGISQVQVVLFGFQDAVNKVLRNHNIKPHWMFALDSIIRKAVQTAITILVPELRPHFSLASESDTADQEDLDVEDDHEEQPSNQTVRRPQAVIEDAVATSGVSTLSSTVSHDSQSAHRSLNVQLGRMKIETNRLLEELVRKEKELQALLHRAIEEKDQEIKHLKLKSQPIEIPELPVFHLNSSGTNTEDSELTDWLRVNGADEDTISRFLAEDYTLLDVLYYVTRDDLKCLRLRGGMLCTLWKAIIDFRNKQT
ASK1 T838 auto phosphorylation in HEK-293T cells, sequence (Q99683 whole entry): as above

Row | IC50 (ASK1/MAP3K5; [2]) [nM] | IC50 [1, 3] [nM] | SMILES | IC50 (ASK1/MAP3K5) [nM] | IC50 [1] [nM]
1 | < 100 | < 1000 | C[C@H]1CCCOc2cc(F)c(N3CCOCC3)cc2C(=O)Nc2cccc(n2)-c2nncn21 [Example 103, (S)-5^4-Fluoro-10-methyl-5^5-morpholino-1^4H-6-oxa-3-aza-2(2,6)-pyridina-1(3,4)-triazola-5(1,2)-benzenacyclodecaphan-4-one] | – | –
2 | < 100 | < 1000 | C[C@H]1CCCOc2cc(F)c(C3CCN(C)CC3)cc2C(=O)Nc2cccc(n2)-c2nncn21 [Example 107, (S)-5^4-Fluoro-10-methyl-5^5-(1-methylpiperidin-4-yl)-1^4H-6-oxa-3-aza-2(2,6)-pyridina-1(3,4)-triazola-5(1,2)-benzenacyclodecaphan-4-one] | – | –
3 | < 100 | < 1000 | C[C@H]1CCCOc2cc(F)c(C3=CCOCC3)cc2C(=O)Nc2cccc(n2)-c2nncn21 [Example 108, (S)-5^5-(3,6-Dihydro-2H-pyran-4-yl)-5^4-fluoro-10-methyl-1^4H-6-oxa-3-aza-2(2,6)-pyridina-1(3,4)-triazola-5(1,2)-benzenacyclodecaphan-4-one] | – | –
4 | < 100 | < 1000 | C[C@H]1CCCOc2cc(F)c(-c3cncnc3)cc2C(=O)Nc2cccc(n2)-c2nncn21 [Example 110, (S)-5^4-Fluoro-10-methyl-5^5-(pyrimidin-5-yl)-1^4H-6-oxa-3-aza-2(2,6)-pyridina-1(3,4)-triazola-5(1,2)-benzenacyclodecaphan-4-one] | – | –
5 | < 100 | < 1000 | C[C@H]1CCCOc2cc(F)c(-c3cncc(C(F)(F)F)c3)cc2C(=O)Nc2cccc(n2)-c2nncn21 [Example 111, (S)-5^4-Fluoro-10-methyl-5^5-(5-(trifluoromethyl)pyridin-3-yl)-1^4H-6-oxa-3-aza-2(2,6)-pyridina-1(3,4)-triazola-5(1,2)-benzenacyclodecaphan-4-one] | – | –
6 | < 100 | < 1000 | C[C@H]1CCCOc2cc(F)c(-c3ccncc3)cc2C(=O)Nc2cccc(n2)-c2nncn21 [Example 112, (S)-5^4-Fluoro-10-methyl-5^5-(pyridin-4-yl)-1^4H-6-oxa-3-aza-2(2,6)-pyridina-1(3,4)-triazola-5(1,2)-benzenacyclodecaphan-4-one] | – | –
7 | < 100 | < 1000 | C[C@H]1CCCOc2cc(F)c(-c3cnn(C)c3)cc2C(=O)Nc2cccc(n2)-c2nncn21 [Example 114, (S)-5^4-Fluoro-10-methyl-5^5-(1-methyl-1H-pyrazol-4-yl)-1^4H-6-oxa-3-aza-2(2,6)-pyridina-1(3,4)-triazola-5(1,2)-benzenacyclodecaphan-4-one] | – | –
8 | < 100 | < 1000 | C[C@H]1CCCOc2cc(F)c(-c3cnn(CCN(C)C)c3)cc2C(=O)Nc2cccc(n2)-c2nncn21 [Example 115, (S)-5^5-(1-(2-(Dimethylamino)ethyl)-1H-pyrazol-4-yl)-5^4-fluoro-10-methyl-1^4H-6-oxa-3-aza-2(2,6)-pyridina-1(3,4)-triazola-5(1,2)-benzenacyclodecaphan-4-one] | – | –
9 | < 100 | < 1000 | COCCOc1cc2c(cc1F)OCCC[C@H](C)n1cnnc1-c1cccc(n1)NC2=O [Example 117, (S)-5^4-Fluoro-5^5-(2-methoxyethoxy)-10-methyl-1^4H-6-oxa-3-aza-2(2,6)-pyridina-1(3,4)-triazola-5(1,2)-benzenacyclodecaphan-4-one] | – | –
10 | < 100 | < 1000 | C[C@H]1CCCOc2cc(F)c(C#N)cc2C(=O)Nc2cccc(n2)-c2nncn21 [Example 118, (S)-5^4-Fluoro-10-methyl-4-oxo-1^4H-6-oxa-3-aza-2(2,6)-pyridina-1(3,4)-triazola-5(1,2)-benzenacyclodecaphane-5^5-carbonitrile] | – | –
11 | < 100 | < 1000 | C[C@H]1CCCOc2cc(S(C)(=O)=O)c(Br)cc2C(=O)Nc2cccc(n2)-c2nncn21 [Example 119, (S)-5^5-Bromo-10-methyl-5^4-(methylsulfonyl)-1^4H-6-oxa-3-aza-2(2,6)-pyridina-1(3,4)-triazola-5(1,2)-benzenacyclodecaphan-4-one] | – | –
12 | < 100 | < 1000 | C[C@H]1CCCOc2cc(N3CCN(C)CC3)ccc2C(=O)Nc2cccc(n2)-c2nncn21 [Example 122, (S)-10-Methyl-5^4-(4-methylpiperazin-1-yl)-1^4H-6-oxa-3-aza-2(2,6)-pyridina-1(3,4)-triazola-5(1,2)-benzenacyclodecaphan-4-one] | – | –
13 | 1000 to 10000 | 1000 to 10000 | C[C@@H]1CCCOc2cc(N3CCN(C)CC3)ccc2C(=O)Nc2cccc(n2)-c2nncn21 [Example 123, (R)-10-Methyl-5^4-(4-methylpiperazin-1-yl)-1^4H-6-oxa-3-aza-2(2,6)-pyridina-1(3,4)-triazola-5(1,2)-benzenacyclodecaphan-4-one] | – | –
14 | < 100 | < 1000 | C[C@H]1CCOc2cc(F)c(Br)cc2C(=O)Nc2cccc(n2)-c2nncn2C1 [Example 124, (S)-5^5-Bromo-5^4-fluoro-9-methyl-1^4H-6-oxa-3-aza-2(2,6)-pyridina-1(3,4)-triazola-5(1,2)-benzenacyclodecaphan-4-one] | – | –
15 | 100 to 1000 | 1000 to 10000 | C[C@@H]1CCOc2cc(F)c(Br)cc2C(=O)Nc2cccc(n2)-c2nncn2C1 [Example 125, (R)-5^5-Bromo-5^4-fluoro-9-methyl-1^4H-6-oxa-3-aza-2(2,6)-pyridina-1(3,4)-triazola-5(1,2)-benzenacyclodecaphan-4-one] | – | –
16 | – | – | C[C@H]1CCOc2cc(F)c(C#CC3(C)COC3)cc2C(=O)Nc2cccc(n2)-c2nncn2C1 [Example 134, (S)-5^4-Fluoro-9-methyl-5^5-((3-methyloxetan-3-yl)ethynyl)-1^4H-6-oxa-3-aza-2(2,6)-pyridina-1(3,4)-triazola-5(1,2)-benzenacyclodecaphan-4-one] | < 100 | < 1000
17 | < 100 | < 1000 | COCCOc1cc2c(cc1F)OCC[C@H](C)Cn1cnnc1-c1cccc(n1)NC2=O [Example 135, (S)-5^4-Fluoro-5^5-(2-methoxyethoxy)-9-methyl-1^4H-6-oxa-3-aza-2(2,6)-pyridina-1(3,4)-triazola-5(1,2)-benzenacyclodecaphan-4-one] | – | –
18 | < 100 | < 1000 | C[C@H]1CCCn2cnnc2-c2cccc(n2)NC(=O)c2cc(Br)ccc2O1 [Example 136, (S)-5^5-Bromo-7-methyl-1^4H-6-oxa-3-aza-2(2,6)-pyridina-1(3,4)-triazola-5(1,2)-benzenacyclodecaphan-4-one] | – | –
19 | < 100 | 1000 to 10000 | C[C@@H]1CCCn2cnnc2-c2cccc(n2)NC(=O)c2cc(Br)ccc2O1 [Example 137, (R)-5^5-Bromo-7-methyl-1^4H-6-oxa-3-aza-2(2,6)-pyridina-1(3,4)-triazola-5(1,2)-benzenacyclodecaphan-4-one] | – | –
20 | < 100 | < 1000 | C[C@H]1CCCn2cnnc2-c2cccc(n2)NC(=O)c2cc(N3CCN(C)CC3)ccc2O1 [Example 140, (S)-7-Methyl-5^5-(4-methylpiperazin-1-yl)-1^4H-6-oxa-3-aza-2(2,6)-pyridina-1(3,4)-triazola-5(1,2)-benzenacyclodecaphan-4-one] | – | –
21 | < 100 | < 1000 | C[C@@H]1CCCn2cnnc2-c2cccc(n2)NC(=O)c2cc(N3CCN(C)CC3)ccc2O1 [Example 141, (R)-7-Methyl-5^5-(4-methylpiperazin-1-yl)-1^4H-6-oxa-3-aza-2(2,6)-pyridina-1(3,4)-triazola-5(1,2)-benzenacyclodecaphan-4-one] | – | –
22 | < 100 | < 1000 | C[C@H]1CCCn2cnnc2-c2cccc(n2)NC(=O)c2cc(N3CCOCC3)ccc2O1 [Example 142, (S)-7-Methyl-5^5-morpholino-1^4H-6-oxa-3-aza-2(2,6)-pyridina-1(3,4)-triazola-5(1,2)-benzenacyclodecaphan-4-one] | – | –
23 | < 100 | < 1000 | C[C@@H]1CCCn2cnnc2-c2cccc(n2)NC(=O)c2cc(N3CCOCC3)ccc2O1 [Example 143, (R)-7-Methyl-5^5-morpholino-1^4H-6-oxa-3-aza-2(2,6)-pyridina-1(3,4)-triazola-5(1,2)-benzenacyclodecaphan-4-one] | – | –
24 | < 100 | < 1000 | C[C@H]1CCCn2cnnc2-c2cccc(n2)NC(=O)c2cc(-c3ccncc3)ccc2O1 [Example 144, (S)-7-Methyl-5^5-(pyridin-4-yl)-1^4H-6-oxa-3-aza-2(2,6)-pyridina-1(3,4)-triazola-5(1,2)-benzenacyclodecaphan-4-one] | – | –

Row | SMILES | IC50 (ASK1/MAP3K5; [2]) [nM] | IC50 [1, 3] [nM] | IC50 (ASK1/MAP3K5) [nM] | IC50 [1] [nM]
25 | C[C@H]1CCCOc2cc(F)c(N3CC4CC(C3)O4)cc2C(=O)Nc2cccc(n2)-c2nncn21 [Example 104, (10S)-5^5-(6-Oxa-3-azabicyclo[3.1.1]heptan-3-yl)-5^4-fluoro-10-methyl-1^4H-6-oxa-3-aza-2(2,6)-pyridina-1(3,4)-triazola-5(1,2)-benzenacyclodecaphan-4-one] | < 100 | < 1000 | – | –
26 | C[C@H]1CCCOc2cc(F)c(C3=CCN(C)CC3)cc2C(=O)Nc2cccc(n2)-c2nncn21 [Example 106, (S)-5^4-Fluoro-10-methyl-5^5-(1-methyl-1,2,3,6-tetrahydropyridin-4-yl)-1^4H-6-oxa-3-aza-2(2,6)-pyridina-1(3,4)-triazola-5(1,2)-benzenacyclodecaphan-4-one] | < 100 | < 1000 | – | –
27 | Cc1cn(-c2cc3c(cc2F)OCCC[C@H](C)n2cnnc2-c2cccc(n2)NC3=O)cn1 [Example 113, (S)-5^4−Fluoro-10-methyl-5^5-(4-methyl-1H-imidazol-1-yl)-1^4H-6-oxa-3-aza-2(2,6)-pyridina-1(3,4)-triazola-5(1,2)-benzenacyclodecaphan-4-one] | – | < 1000 | < 100 | –
28 | C[C@H]1CCCOc2cc(F)c(OCCN(C)C)cc2C(=O)Nc2cccc(n2)-c2nncn21 [Example 116, (S)-5^5-(2-(Dimethylamino)ethoxy)-5^4-fluoro-10-methyl-1^4H-6-oxa-3-aza-2(2,6)-pyridina-1(3,4)-triazola-5(1,2)-benzenacyclodecaphan-4-one] | – | < 1000 | < 100 | –
